Reference: ChEMBL document CHEMBL1147144, “Novel styrylpyridines as probes for SPECT imaging of amyloid plaques” (J Med Chem, 2007)
Values belong to the compound of their own block, whether it stands above or below them.

What was measured:
[1] = target: Amyloid-beta precursor protein (Homo sapiens, UniProt P05067); assay: Displacement of […] from Abeta peptide plaques in Alzheimer's disease patient brain
Thyroid gland [2] = assay: Biodistribution in ICR mouse thyroid at 5 to 10 uCi, iv after 1 hr; type: ADME, organism-based; details: in vivo
Heart [3] = assay: Biodistribution in ICR mouse heart at 5 to 10 uCi, iv after 30 mins; type: ADME, organism-based; details: in vivo, 0.5 h
Zone of skin [4] = assay: Biodistribution in ICR mouse skin at 5 to 10 uCi, iv after 2 hrs; type: ADME, organism-based; details: in vivo
Lung [5] = assay: Biodistribution in ICR mouse lung at 5 to 10 uCi, iv after 2 hrs; type: ADME, organism-based; details: in vivo
Zone of skin [6] = assay: Biodistribution in ICR mouse skin at 5 to 10 uCi, iv after 1 hr; type: ADME, organism-based; details: in vivo
Blood [7] = assay: Biodistribution in ICR mouse blood at 5 to 10 uCi, iv after 2 hrs; type: ADME, organism-based; details: in vivo
Heart [8] = assay: Biodistribution in ICR mouse heart at 5 to 10 uCi, iv after 2 mins; type: ADME, organism-based; details: in vivo
Spleen [9] = assay: Biodistribution in ICR mouse spleen at 5 to 10 uCi, iv after 2 hrs; type: ADME, organism-based; details: in vivo
Lung [10] = assay: Biodistribution in ICR mouse lung at 5 to 10 uCi, iv after 30 mins; type: ADME, organism-based; details: in vivo, 0.5 h
Blood [11] = assay: Biodistribution in ICR mouse blood at 5 to 10 uCi, iv after 2 mins; type: ADME, organism-based; details: in vivo
Muscle tissue [12] = assay: Biodistribution in ICR mouse muscle at 5 to 10 uCi, iv after 1 hr; type: ADME, organism-based; details: in vivo
Spleen [13] = assay: Biodistribution in ICR mouse spleen at 5 to 10 uCi, iv after 1 hr; type: ADME, organism-based; details: in vivo
Blood [14] = assay: Biodistribution in ICR mouse blood at 5 to 10 uCi, iv after 1 hr; type: ADME, organism-based; details: in vivo
Kidney [15] = assay: Biodistribution in ICR mouse kidney at 5 to 10 uCi, iv after 2 hrs; type: ADME, organism-based; details: in vivo
Thyroid gland [16] = assay: Biodistribution in ICR mouse thyroid at 5 to 10 uCi, iv after 2 mins; type: ADME, organism-based; details: in vivo
Brain [17] = assay: Biodistribution in ICR mouse brain at 5 to 10 uCi, iv after 1 hr; type: ADME, organism-based; details: in vivo
Spleen [18] = assay: Biodistribution in ICR mouse spleen at 5 to 10 uCi, iv after 30 mins; type: ADME, organism-based; details: in vivo, 0.5 h
Muscle tissue [19] = assay: Biodistribution in ICR mouse muscle at 5 to 10 uCi, iv after 2 mins; type: ADME, organism-based; details: in vivo
Liver [20] = assay: Biodistribution in ICR mouse liver at 5 to 10 uCi, iv after 1 hr; type: ADME, organism-based; details: in vivo
Thyroid gland [21] = assay: Biodistribution in ICR mouse thyroid at 5 to 10 uCi, iv after 30 mins; type: ADME, organism-based; details: in vivo, 0.5 h
Brain [22] = assay: Ratio of drug distribution in brain after 2 mins to 30 mins in ICR mouse at 5 to 10 uCi, iv; type: ADME, organism-based; details: in vivo
Liver [23] = assay: Biodistribution in ICR mouse liver at 5 to 10 uCi, iv after 30 mins; type: ADME, organism-based; details: in vivo, 0.5 h
Brain [24] = assay: Biodistribution in ICR mouse brain at 5 to 10 uCi, iv after 30 mins; type: ADME, organism-based; details: in vivo, 0.5 h
Lung [25] = assay: Biodistribution in ICR mouse lung at 5 to 10 uCi, iv after 1 hr; type: ADME, organism-based; details: in vivo
Zone of skin [26] = assay: Biodistribution in ICR mouse skin at 5 to 10 uCi, iv after 2 mins; type: ADME, organism-based; details: in vivo
Kidney [27] = assay: Biodistribution in ICR mouse kidney at 5 to 10 uCi, iv after 30 mins; type: ADME, organism-based; details: in vivo, 0.5 h
Brain [28] = assay: Biodistribution in ICR mouse brain at 5 to 10 uCi, iv after 2 hrs; type: ADME, organism-based; details: in vivo
Lung [29] = assay: Biodistribution in ICR mouse lung at 5 to 10 uCi, iv after 2 mins; type: ADME, organism-based; details: in vivo
Heart [30] = assay: Biodistribution in ICR mouse heart at 5 to 10 uCi, iv after 1 hr; type: ADME, organism-based; details: in vivo
Heart [31] = assay: Biodistribution in ICR mouse heart at 5 to 10 uCi, iv after 2 hrs; type: ADME, organism-based; details: in vivo
Kidney [32] = assay: Biodistribution in ICR mouse kidney at 5 to 10 uCi, iv after 1 hr; type: ADME, organism-based; details: in vivo
Blood [33] = assay: Biodistribution in ICR mouse blood at 5 to 10 uCi, iv after 30 mins; type: ADME, organism-based; details: in vivo, 0.5 h
Liver [34] = assay: Biodistribution in ICR mouse liver at 5 to 10 uCi, iv after 2 mins; type: ADME, organism-based; details: in vivo
Liver [35] = assay: Biodistribution in ICR mouse liver at 5 to 10 uCi, iv after 2 hrs; type: ADME, organism-based; details: in vivo
Kidney [36] = assay: Biodistribution in ICR mouse kidney at 5 to 10 uCi, iv after 2 mins; type: ADME, organism-based; details: in vivo
Zone of skin [37] = assay: Biodistribution in ICR mouse skin at 5 to 10 uCi, iv after 30 mins; type: ADME, organism-based; details: in vivo, 0.5 h
Brain [38] = assay: Biodistribution in ICR mouse brain at 5 to 10 uCi, iv after 2 mins; type: ADME, organism-based; details: in vivo
Muscle tissue [39] = assay: Biodistribution in ICR mouse muscle at 5 to 10 uCi, iv after 2 hrs; type: ADME, organism-based; details: in vivo
Muscle tissue [40] = assay: Biodistribution in ICR mouse muscle at 5 to 10 uCi, iv after 30 mins; type: ADME, organism-based; details: in vivo, 0.5 h
Thyroid gland [41] = assay: Biodistribution in ICR mouse thyroid at 5 to 10 uCi, iv after 2 hrs; type: ADME, organism-based; details: in vivo
[42] = Partition coefficient, log P at pH 7.4; type: physicochemical; details: octanol/water
Spleen [43] = assay: Biodistribution in ICR mouse spleen at 5 to 10 uCi, iv after 2 mins; type: ADME, organism-based; details: in vivo

Sequence of Amyloid-beta precursor protein (P05067 whole entry): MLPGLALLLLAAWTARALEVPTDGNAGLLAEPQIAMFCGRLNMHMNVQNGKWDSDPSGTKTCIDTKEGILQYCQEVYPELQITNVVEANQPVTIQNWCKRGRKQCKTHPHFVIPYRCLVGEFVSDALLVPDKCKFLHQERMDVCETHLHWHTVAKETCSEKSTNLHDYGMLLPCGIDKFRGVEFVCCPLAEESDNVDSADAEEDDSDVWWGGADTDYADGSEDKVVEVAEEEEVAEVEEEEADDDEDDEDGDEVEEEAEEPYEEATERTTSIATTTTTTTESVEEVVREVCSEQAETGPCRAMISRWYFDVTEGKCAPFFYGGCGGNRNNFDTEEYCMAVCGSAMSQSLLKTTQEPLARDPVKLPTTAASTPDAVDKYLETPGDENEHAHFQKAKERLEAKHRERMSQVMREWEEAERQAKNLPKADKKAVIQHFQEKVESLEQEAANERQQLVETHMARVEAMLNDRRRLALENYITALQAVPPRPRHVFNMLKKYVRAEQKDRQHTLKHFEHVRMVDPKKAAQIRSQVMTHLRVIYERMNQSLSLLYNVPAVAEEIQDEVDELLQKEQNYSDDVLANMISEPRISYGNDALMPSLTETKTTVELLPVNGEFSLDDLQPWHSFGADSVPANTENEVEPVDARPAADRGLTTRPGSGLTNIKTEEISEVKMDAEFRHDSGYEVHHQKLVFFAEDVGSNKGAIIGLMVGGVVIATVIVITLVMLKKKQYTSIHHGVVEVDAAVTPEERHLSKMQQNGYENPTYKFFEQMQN

Ki [1]: 0.021 µM
SMILES: Oc1ccc(/C=C/c2cnc(OCCOCCOCCF)c(I)c2)cc1

Drug uptake (Thyroid gland [2]): 36.7 % ID/g
Drug uptake (Heart [3]): 1.5 % ID/g
Drug uptake (Zone of skin [4]): 1.43 % ID/g
Drug uptake (Lung [5]): 1.58 % ID/g
Drug uptake (Zone of skin [6]): 1.29 % ID/g
Drug uptake (Blood [7]): 1.96 % ID/g
Drug uptake (Heart [8]): 7.16 % ID/g
Drug uptake (Spleen [9]): 1.08 % ID/g
Drug uptake (Lung [10]): 2.67 % ID/g
Drug uptake (Blood [11]): 4.14 % ID/g
Drug uptake (Muscle tissue [12]): 0.42 % ID/g
Drug uptake (Spleen [13]): 0.87 % ID/g
Drug uptake (Blood [14]): 1.81 % ID/g
Drug uptake (Kidney [15]): 1.53 % ID/g
Drug uptake (Thyroid gland [16]): 6.31 % ID/g
Drug uptake (Brain [17]): 0.26 % ID/g
Drug uptake (Spleen [18]): 1.34 % ID/g
Drug uptake (Muscle tissue [19]): 1.15 % ID/g
Drug uptake (Liver [20]): 5.62 % ID/g
Drug uptake (Thyroid gland [21]): 17.2 % ID/g
Ratio (Brain [22]): 9.13
Drug uptake (Liver [23]): 12.6 % ID/g
Drug uptake (Brain [24]): 0.88 % ID/g
Drug uptake (Lung [25]): 1.76 % ID/g
Drug uptake (Zone of skin [26]): 0.95 % ID/g
Drug uptake (Kidney [27]): 3.73 % ID/g
Drug uptake (Brain [28]): 0.15 % ID/g
Drug uptake (Lung [29]): 7.43 % ID/g
Drug uptake (Heart [30]): 0.88 % ID/g
Drug uptake (Heart [31]): 0.76 % ID/g
Drug uptake (Kidney [32]): 2.16 % ID/g
Drug uptake (Blood [33]): 3.08 % ID/g
Drug uptake (Liver [34]): 20.8 % ID/g
Drug uptake (Liver [35]): 3.41 % ID/g
Drug uptake (Kidney [36]): 11.5 % ID/g
Drug uptake (Zone of skin [37]): 1.86 % ID/g
Drug uptake (Brain [38]): 8.04 % ID/g
Drug uptake (Muscle tissue [39]): 0.38 % ID/g
Drug uptake (Muscle tissue [40]): 0.91 % ID/g
Drug uptake (Thyroid gland [41]): 99.9 % ID/g
logD [42]: 2.2
Drug uptake (Spleen [43]): 4.08 % ID/g
SMILES: CNc1ccc(/C=C/c2cnc(OCCO)c([125I])c2)cc1

Drug uptake (Thyroid gland [2]): 13 % ID/g
Drug uptake (Heart [3]): 1.35 % ID/g
Drug uptake (Zone of skin [4]): 0.37 % ID/g
Drug uptake (Lung [5]): 1.02 % ID/g
Drug uptake (Zone of skin [6]): 0.62 % ID/g
Drug uptake (Blood [7]): 1.56 % ID/g
Drug uptake (Heart [8]): 6.66 % ID/g
Drug uptake (Spleen [9]): 0.5 % ID/g
Drug uptake (Lung [10]): 3.1 % ID/g
Drug uptake (Blood [11]): 10.1 % ID/g
Drug uptake (Muscle tissue [12]): 0.21 % ID/g
Drug uptake (Spleen [13]): 0.5 % ID/g
Drug uptake (Blood [14]): 1.29 % ID/g
Drug uptake (Kidney [15]): 2.5 % ID/g
Drug uptake (Thyroid gland [16]): 4.38 % ID/g
Drug uptake (Brain [17]): 0.09 % ID/g
Drug uptake (Spleen [18]): 1.28 % ID/g
Drug uptake (Muscle tissue [19]): 1.01 % ID/g
Drug uptake (Liver [20]): 2.38 % ID/g
Drug uptake (Thyroid gland [21]): 3.99 % ID/g
Drug uptake (Liver [23]): 5.15 % ID/g
Drug uptake (Brain [24]): 0.26 % ID/g
Drug uptake (Lung [25]): 1.34 % ID/g
Drug uptake (Zone of skin [26]): 0.64 % ID/g
Drug uptake (Kidney [27]): 10 % ID/g
Drug uptake (Brain [28]): 0.06 % ID/g
Drug uptake (Lung [29]): 14.2 % ID/g
Drug uptake (Heart [30]): 0.65 % ID/g
Drug uptake (Heart [31]): 0.51 % ID/g
Drug uptake (Kidney [32]): 2.94 % ID/g
Drug uptake (Blood [33]): 3.92 % ID/g
Drug uptake (Liver [34]): 18.3 % ID/g
Drug uptake (Liver [35]): 2.63 % ID/g
Drug uptake (Kidney [36]): 20.4 % ID/g
Drug uptake (Zone of skin [37]): 1.36 % ID/g
Drug uptake (Brain [38]): 0.99 % ID/g
Drug uptake (Muscle tissue [39]): 0.12 % ID/g
Drug uptake (Muscle tissue [40]): 0.59 % ID/g
Drug uptake (Thyroid gland [41]): 16 % ID/g
logD [42]: 2.2
Drug uptake (Spleen [43]): 4.2 % ID/g
SMILES: OCCOc1ncc(/C=C/c2ccc(O)cc2)cc1[125I]

Ki [1]: 0.0036 µM
SMILES: CN(C)c1ccc(/C=C/c2cnc(OCCO)c(Br)c2)cc1
